How the values were obtained:
Candida albicans = assay: MIC of fumifungin, growth inhibition of Candida albicans; type: cell-based
Saccharomyces cerevisiae = assay: MIC of fumifungin, growth inhibition of Saccharomyces cerevisiae; type: cell-based
Wild yeast = assay: MIC of fumifungin, growth inhibition of Wild yeast; type: cell-based
Aspergillus niger = assay: MIC of fumifungin, growth inhibition of Aspergillus niger; type: cell-based
Alternaria solani = assay: MIC of fumifungin, growth inhibition of Alternaria solani; type: cell-based
Cercospora beticola = assay: MIC of fumifungin, growth inhibition of Cercospora beticola; type: cell-based
Cladosporium resinae = assay: MIC of fumifungin, growth inhibition of Cladosporium resinae; type: cell-based; conditions: Amorphotheca resinae
bacteria = assay: bactericidal properties; type: cell-based
fungi = assay: fungicidal properties; type: cell-based
[1] = Solubility (physicochemical properties of fumifungin); conditions: solvents in which soluble

**Q.** Which MIC (Candida albicans) does the source give for `CCCCCCC(O)CCCCCCC=CC(O)C(OC(C)=O)C(O)C(N)C(=O)O` (stereo not shown) [fumifungin, 2-amino-4-acetoxy-3,5,14-tri-hydroxy-Δ^6-eicosenoic acid] here?
**A.** The MIC was 62.5 mg/mL.

**Q.** And the MIC (Saccharomyces cerevisiae)?
**A.** The MIC was 62.5 mg/mL.

**Q.** What about the MIC (Wild yeast) of the same molecule?
**A.** Its MIC is 62.5 mg/mL.

**Q.** And the MIC (Aspergillus niger)?
**A.** The MIC was > 7.8 mg/mL.

**Q.** And the MIC (Alternaria solani)?
**A.** The MIC was 31.2 mg/mL.

**Q.** What about the MIC (Cercospora beticola) of the same molecule?
**A.** Its MIC is 0.9 mg/mL.

**Q.** What about the MIC (Cladosporium resinae) of the same molecule?
**A.** Its MIC is > 0.9 mg/mL.

**Q.** What about the bactericidal properties (bacteria) of the same molecule?
**A.** The bactericidal properties was “bactericidal”.

**Q.** What about the fungicidal properties (fungi) of the same molecule?
**A.** Its fungicidal properties is “fungicidal”.

**Q.** What about the Solubility [1] of the same molecule?
**A.** The Solubility was “methanol, DMSO”.

Source: patent US5001258A, “Antibiotic, fumifungin, a microbial process for the preparation thereof, and the use thereof as a pharmaceutical” (Hoechst Aktiengesellschaft, priority 1987, dated 1991)
